Results on seven compounds are retold here after US11286271B2, “Iridium (III) complexes containing N-heterocyclic carbene ligand, synthesis, and their use thereof in cancer treatment” (The University of Hong Kong, priority 2018, dated 2022).

pIC50: −log10 of the molar value.

The term Log P denotes a log measure of how a compound divides between an organic and an aqueous phase. What is called pIC50 is the negative decadic logarithm of the IC50, by convention in mol/L. High values mean a low IC50, low ones a high IC50.

For data set [1], the system named is NCI-H460 lung cancer cells. The data set is described as follows: Cytotoxicity and photocytotoxicity, MTT assay, NCI-H460 in dark or under visible light. The class given is cell-based, human. To be noted: for PI = IC50(dark)/IC50(light): NCI-H460, phototoxicity index. The protocol:
FIG. 12A-12G. Plots of cell viability of NCI-H460 lung cancer cells upon 72 h treatment with the iridium(III) porphyrin complexes and cis-platin in dark or under light irradiation (2.8 mW cm^−2 for 1 h).
NCI-H460 lung cancer cells incubated with the complexes were exposed to a low dose of visible light irradiation (2.8 mW cm^−2) for 1 h. […] The cytotoxicity of [Ir^III(oep)Cl(CO)] was also evaluated for comparison.
(Formazan colour is commonly taken as a measure of viable cells.)

For data set [2] the following is noted: in CHCl3, reference standard; cited from earlier work.
Data set [3] in a line: Lipophilicity, n-octanol / saline partition. It is filed as physicochemical. To be noted: n-octanol / saline solution (0.9% w/v), by amount of iridium.
Data set [4] relates to panel of human cancer cell lines. The data set is described as follows: Cytotoxicity towards a panel of human cancer cell lines. The conditions noted are these: summary of Table 2.
The test system of another data set is MCF-7. The data set is described as follows: In vitro cytotoxicity, MTT assay, MCF-7. It is filed as cell-based, human. To be noted: 72 h incubation.
Another data set deals with HepG2. The data set is described as follows: In vitro cytotoxicity, MTT assay, HepG2. The class given is cell-based, human. The conditions noted are these: 72 h incubation.
The test system of another data set is MS-1 endothelial cells. The data set is described as follows: Inhibition of endothelial cell tube formation (angiogenesis). The conditions noted are these: 0.1 μM. The class given is cell-based. An excerpt: (§1) FIGS. 8A-8C. […] (A) Apoptosis/necrosis in NCI-H460 cells as examined by flow cytometry of annexin-V-FITC/propidium iodide-stained cells. (B) Cell cycle progression in NCI-H460 cells as examined by flow cytometry. (C) Inhibition of angiogenesis of MS-1 endothelial cells.
(§2) The other two groups of mice received the same treatment without irradiation as a control.

Data set [5] concerns NCI-H460 human non-small cell lung cancer xenografts. The data set is described as follows: In vivo antitumor activity, intravenous injection, NCI-H460 xenograft. The conditions noted are these: 3 mg/kg intravenous thrice weekly, 16-day treatment. How it is done:
(A) Tumor volume and (B) body weight of mice. Data are expressed as the mean±standard error; *p<0.05.
Nude mice bearing NCI-H460 human non-small cell lung cancer xenografts were administered 102 (3 mg/kg) via intravenous injection thrice weekly.

The test system of data set [6] is NCI-H460 cells. The data set can be described thus: Apoptosis by annexin-V-FITC/propidium iodide flow cytometry. It is filed as cell-based, human. The conditions noted are these: 0.1 μM.
Text: as §1, §2
In general terms: Flow cytometry measures light scatter and fluorescence of single cells or particles in a stream.

Data set [7] has as its system NCI-H460 lung cancer cells. The data set is described as follows: Cellular ROS generation by DCF fluorescence (H2DCF-DA probe). The class given is cell-based, human. To be noted: 1 μM, 2 h, visible light irradiation.
Experimental: (A) Generation of ROS examined by DCF fluorescence measurement in NCI-H460 cells treated with or without iridium(III) porphyrin complexes (1 μM) for 2 h with or without irradiation by visible light.
To examine the relationship between photocytotoxicity and the photosensitizing properties of the complexes, we measured the cellular reactive oxygen species (ROS) generation using the ROS probe H2DCF-DA after treatment of cancer cells with the iridium(III) porphyrin complexes.
Data set [8] in a line: Singlet oxygen generation quantum yield from 1O2 emission. The conditions noted are these: oxygen-saturated CHCl3, referenced to H2tpp. The class given is physicochemical.
Data set [9] relates to NCI-H460 cells. The data set is described as follows: Subcellular localization by confocal microscopy imaging. To be noted: 1 μM, 2 h, NCI-H460, ER-Tracker green.
Data set [10] relates to NCI-H460 lung cancer xenografts. To be noted: 3.0 mg/kg intratumoral.
Text: FIGS. 9A-9D. […] (A) Tumor volume. (B) Body weight of mice. (C) Tumor weight after the experiment. […] (D) Photo of tumors of each group after treatment for 15 days. Data are expressed as the mean±standard error; **p<0.01.
as §2

The subject of data set [11] is peptide ([…]) from thioredoxin (Trx). The data set is described as follows: Photoinduced oxidation of Trx model peptide by ESI-MS/MS. The class given is biochemical. To be noted: peptide 20 μM, complex 10 μM, light irradiation 1 h.
Text: A peptide ([sequence]) from thioredoxin (Trx) was employed as a model to investigate the possible oxidative modification sites by electrospray ionization tandem mass spectrometry (ESI-MS/MS).
Data set [12] relates to NCI-H460 cells. The data set is described as follows: Cell cycle progression by flow cytometry. It is filed as cell-based, human. To be noted: 0.1 μM.
Text: as §1, §2

Regarding `N.N.[Cl][Pt][Cl]` [Cisplatin], the results for the “PI = IC50(dark)/IC50(light)” value in data set [1] and in data set [1] (listed as cisplatin) were 0.72 and under 1, respectively.
For `C1=Cc2nc1c(-c1ccccc1)c1ccc([nH]1)c(-c1ccccc1)c1nc(c(-c3ccccc3)c3ccc([nH]3)c2-c2ccccc2)C=C1` [Complex H2tpp, H2tpp], the “Quantum yield of singlet oxygen generation (Φso), reference” value in data set [2] is recorded as 0.55.
As to `CCC1=C(CC)C2=NC1=Cc1c(CC)c(CC)c3[n]1[Ir+][n]1c(c(CC)c(CC)c1=CC1=NC(=C3)C(CC)=C1CC)=C2.F[B-](F)(F)F.[C-]#[N+]c1ccc(OC)cc1.[C-]#[N+]c1ccc(OC)cc1` [[Ir^III(ope)(CNPhOMe)2](BF4)], the “Log P” value in data set [3] was 2.81. Also, the “Cytotoxicity / IC50 in words, panel of human cancer cell lines” value in [4] is reported as “reduced cytotoxicity”. Besides, the “PI = IC50(dark)/IC50(light)” value in data set [1] worked out at 24.2. For the same compound, the pIC50 in the data set on MCF-7 and in the data set on HepG2 was under 4.00 each time.
Take [Ir^III(oep)(IMe)2](OTf) [Complex 102]: the “MS-1 cell tube formation, dark” value with MS-1 endothelial cells (dark) is “moderate inhibition”. Also, the “MS-1 cell tube formation, light irradiation” value in the data set with MS-1 endothelial cells (light irradiation) was “completely abrogated”. In [5], the “Toxicity incl. body weight loss and death” value is listed as “without apparent toxicity”; the Tumor size reduction came to 41%. For the same compound, the “Proportion of cells undergoing apoptotic cell death, without irradiation” value with NCI-H460 cells [6] (dark) is given as 5.9%. In addition, the “Proportion of cells undergoing apoptotic cell death, light irradiation” value with NCI-H460 cells [6] (visible light irradiation) worked out at 81.7%. Further, the “Elevation in ROS levels” value in [7] turned out to be 10 fold. Further, the “Quantum yield of singlet oxygen generation (Φso)” value in [8] came to 0.88. The “Pearson's correlation coefficient (R) with ER-Tracker” value in the data set with NCI-H460 cells [9] is 0.903. Also, the “Tumor weight, photoirradiation group vs dark control group” value in data set [10] (after 15 days) was “much lower”. The “Changes in body weight” value in data set [10] (with or without irradiation, 15 days) is recorded as “negligible changes in body weight”. Further, the “Oxidative modification of Trx peptide” value in data set [11] is given as “undergo oxidative modifications”. In the data set with NCI-H460 cells [12] (dark (increase from 59.6%)), this compound returned a G0/G1-population of 66.3%. For the same compound, in the data set on NCI-H460 cells [12] (visible light irradiation), the “sub-G1 population, visible light irradiation” value is 96.9%. The “sub-G1 population, before irradiation” value in the data set with NCI-H460 cells [12] (without light) was determined as 2.2%.
For the compound “[Ir^III(oep)(I^iPr)2](PF6) [Complex 103]”, in data set [1] (NCI-H460, visible light 2.8 mW cm^−2, 1 h), the “IC50 upon light irradiation, in words” value was “nanomolar”.
In the case of [Ir^III(oep)Cl(CO)], the “Log P” value in data set [3] is on record as 2.38. The “PI = IC50(dark)/IC50(light)” value in [1] was over 2.5. In [1] (dark, MTT assay, 72 h), this compound showed a negative-log IC50 (pIC50) of under 4.30.
[Ir^III(ttp)(IMe)2](ORf) [Complex 101]: in data set [8], the “Quantum yield of singlet oxygen generation (Φso)” value is 0.64.
